Measured values taken from patent publication US20100029675A1, “Pyrimidine-2, 4-diamine JAK2 Kinase inhibiting anti-inflammation use” (priority 2008, published 2010).

Legend:
[1] = tested on: JAK2-dependent phosphorylation of STAT3 (phospho-Y705) in AGS gastric cancer cell line; experiment: Western blot of STAT3 phosphorylation in AGS cells; format: cell-based; settings: 24 hours, 5-10 uM, densitometry
Procedure: (§1) In order to detect specific inhibition of JAK2 enzyme in cell culture, Western blot assays may also be performed. For this, cells which have been treated with a potential JAK2 inhibitor are lysed with a buffer specific for the isolation and preservation of proteins (1% Nonidet P-40, 120 mM NaCl, 30 mM Tris pH 7.4, 1:100 Protease Inhibitor Cocktail III [Calbiochem/EMD Biosciences], 1:100 Phosphatase Inhibitor Cocktail 1 [Sigma-Aldrich, Saint Louis, Mo.], 1:100 Phosphatase Inhibitor Cocktail 2 [Sigma-Aldrich, Saint Louis, Mo.]). The protein concentration in these lysates is then quantified using the BCA Protein Assay Kit (Pierce). Known amounts of protein, e.g. 50 ug, are loaded onto 10% SDS-polyacrylamide gels and are subjected to reducing, denaturing SDS-PAGE. […]
(§2) In this example, Compound 1-4 is shown to reduce the JAK2-dependent phosphorylation of STAT3 and STAT5 in the AGS gastric cancer cell line. […] Following incubation, cells were lysed and total protein isolated and quantified. […] Densitometry analysis was performed in order to quantify the amount of STAT3 and STAT5 phosphorylation in these treated cells. Phospho-STAT3 and phospho-STAT5 were compared to total STAT3 and STAT5 and the proportion of STAT phosphorylation relative to untreated controls was determined.

[2] = tested on: JAK2-dependent phosphorylation of STAT5 (phospho-Y694) in AGS gastric cancer cell line; experiment: Western blot of STAT5 phosphorylation in AGS cells; format: cell-based; settings: 24 hours, 5-10 uM, densitometry
Procedure: as §1, §2

CN1CCN(c2ccc(Nc3nccc(Nc4ccc(F)c(Cl)c4)n3)cc2)CC1 [Compound 1-4, N4-(3-chloro-4-fluorophenyl)-N2-(4-(4-methylpiperazin-1-yl)phenyl)pyrimidine-2,4-diamine]
STAT3 phosphorylation relative to untreated controls [1]: reduce
STAT5 phosphorylation relative to untreated controls [2]: reduce
